27 compounds from US6673795B2, “Pyrimidine, pyrazine and triazane derivatives” (Hoffmann-La Roche Inc., priority 2001, dated 2004) can be followed below.

The target in one series is T1, rat mGluR1a receptor (Rattus norvegicus, UniProt P23385).
T1 construct: expressed in transfected cells; host or cells: HEK 293 cells, transient transfection; membrane preparation
The series can be described thus: Binding assay for the characterization of mGluR 1 antagonistic properties (tritiated radioligand displacement). The settings on record: membranes of HEK 293 cells transiently transfected with rat mGluR1a; tritiated 1-ethyl-2-methyl-6-oxo-4-(1,1,2-tritritio-1,2,4,5-tetrahydro-benzo[d]azepin-3-yl)-1,6-dihydro-pyrimidine-5-carbonitrile at 3 nM; 1 hour at room temperature. As for the experimental part: Binding Assay for the Characterization of mGluR 1 Antagonistic Properties
Binding assay with tritiated 1-ethyl-2-methyl-6-oxo-4-(1,1,2-tritritio-1,2,4,5-tetrahydro-benzo[d]azepin-3-yl)-1,6-dihydro-pyrimidine-5-carbonitrile: HEK 293 cells were transiently transfected with the rat mGluR^1 a receptor. The cells were collected and washed 3 times with PBS. The cell pellets were frozen at −80° C. Membranes were prepared from HEK 293 cells transfected with the rat mGluR^1 a receptor and used in the binding experiments at 10 μg proteins per assay after resuspension in a HEPES NaOH 20 mM, pH=7.4 binding buffer. 1-Ethyl-2-methyl-6-oxo-4-(1,1,2-tritritio-1,2,4,5-tetrahydro-benzo [d]azepin-3-yl)-1,6-dihydro-pyrimidine-5-carbonitrile (S.A 33.4 Ci/mmol) was used at 3 nM final concentration. The incubation with variable concentrations of potential inhibitors was performed for 1 hour at room temperature, the incubate was then filtered onto GF/B glass fiber filter preincubated 1 hour in PEI 0,1% and washed 3 times with 1 ml of cold binding buffer. The radioactivity retained on the unifilter 96 was counted using a Topcount β counter. After correction for non specific binding the data were normalized and the IC50 value calculated using a 4 parameters logistic equation which was fitted to the inhibition curve.
(In general: In a radioligand displacement assay an active substance lowers the binding of a labelled ligand.)

The term melting point denotes the temperature, or range, at which the solid turns liquid. As usually defined, the IC50 is the concentration needed to halve the response being measured. A low value points to higher potency.

T1 sequence (P23385 19-1199): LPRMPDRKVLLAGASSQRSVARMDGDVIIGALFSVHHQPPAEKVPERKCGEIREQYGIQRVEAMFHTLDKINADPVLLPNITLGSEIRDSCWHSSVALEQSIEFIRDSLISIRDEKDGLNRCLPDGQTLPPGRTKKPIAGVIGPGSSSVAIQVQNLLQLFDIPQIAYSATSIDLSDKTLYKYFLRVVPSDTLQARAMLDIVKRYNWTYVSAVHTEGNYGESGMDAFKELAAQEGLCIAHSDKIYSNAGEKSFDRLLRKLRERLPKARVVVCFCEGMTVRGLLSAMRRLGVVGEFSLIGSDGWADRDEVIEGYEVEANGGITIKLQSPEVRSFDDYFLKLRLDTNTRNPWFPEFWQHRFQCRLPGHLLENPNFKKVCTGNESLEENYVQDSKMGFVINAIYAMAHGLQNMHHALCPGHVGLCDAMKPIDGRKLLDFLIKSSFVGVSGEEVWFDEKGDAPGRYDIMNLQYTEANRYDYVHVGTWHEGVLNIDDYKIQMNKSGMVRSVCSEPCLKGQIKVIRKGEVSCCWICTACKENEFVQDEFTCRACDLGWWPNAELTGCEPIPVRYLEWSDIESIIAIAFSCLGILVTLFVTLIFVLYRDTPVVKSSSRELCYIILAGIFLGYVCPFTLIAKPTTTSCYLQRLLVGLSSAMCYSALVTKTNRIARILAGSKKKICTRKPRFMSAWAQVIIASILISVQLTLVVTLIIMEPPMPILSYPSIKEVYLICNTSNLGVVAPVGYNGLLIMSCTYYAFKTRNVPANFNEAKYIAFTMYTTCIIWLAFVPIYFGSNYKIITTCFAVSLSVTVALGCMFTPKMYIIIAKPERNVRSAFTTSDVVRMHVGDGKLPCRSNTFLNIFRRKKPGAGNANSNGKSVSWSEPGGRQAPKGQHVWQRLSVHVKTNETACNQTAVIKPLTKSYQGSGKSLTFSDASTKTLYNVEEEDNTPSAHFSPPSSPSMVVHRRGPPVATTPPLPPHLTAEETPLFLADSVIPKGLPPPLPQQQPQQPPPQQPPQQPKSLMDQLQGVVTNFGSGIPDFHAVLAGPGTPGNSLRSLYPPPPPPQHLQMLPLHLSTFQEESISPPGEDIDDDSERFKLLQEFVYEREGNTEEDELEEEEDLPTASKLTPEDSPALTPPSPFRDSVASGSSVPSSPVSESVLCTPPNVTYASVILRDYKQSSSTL

For `Cc1nc(N2CCN(c3ccc(F)cc3)CC2)c([N+](=O)[O-])c(=O)[nH]1` [Example 1, 6-[4-(4-Fluoro-phenyl)-piperazin-1-yl]-2-methyl-5-nitro-3H-pyrimidin-4-one], the melting point was > 250 °C (dec.). The compound also displayed a 50% inhibitory concentration (IC50) at rat mGluR1a receptor of 0.81 µM.

In the case of `Cc1nc(N2CCC(O)(c3ccccc3)CC2)c([N+](=O)[O-])c(=O)[nH]1` [Example 3, 6-(4-Hydroxy-4-phenyl-piperidin-1-yl)-2-methyl-5-nitro-3H-pyrimidin-4-one], the melting point was > 250 °C (dec.).

Turning to `Cc1nc(N2CCN(c3ccccc3)CC2)c([N+](=O)[O-])c(=O)[nH]1` [Example 4, 2-Methyl-5-nitro-6-(4-phenyl-piperazin-1-yl)-3H-pyrimidin-4-one], the melting point was > 250 °C (dec.).

In the case of `Cc1nc(N2CCC(c3ccccc3)CC2)c([N+](=O)[O-])c(=O)[nH]1` [Example 5, 2-Methyl-5-nitro-6-(4-phenyl-piperidin-1-yl)-3H-pyrimidin-4-one], the melting point was in the range of 210 to 213 °C. Further, the IC50 at rat mGluR1a receptor is 0.063 µM.

As to `Cc1nc(N2CC=C(c3ccccc3)CC2)c([N+](=O)[O-])c(=O)[nH]1` [Example 6, 2-Methyl-5-nitro-6-(4-phenyl-3,6-dihydro-2H-pyridin-1-yl)-3H-pyrimidin-4-one], the melting point is 212 to 216 °C (dec.).

Take `Cc1nc(N2CCC(c3ccc(F)cc3)CC2)c([N+](=O)[O-])c(=O)[nH]1` [Example 7, 6-[4-(4-Fluoro-phenyl)-piperidin-1-yl]-2-methyl-5-nitro-3H-pyrimidin-4-one]: the melting point was 218 to 221 °C (dec.).

Turning to `Cc1nc(OCC(F)(F)F)c([N+](=O)[O-])c(N2CCC(c3ccccc3)CC2)n1` [Example 9-2, 2-methyl-5-nitro-4-(4-phenyl-piperidin-1-yl)-6-(2,2,2-trifluoro-ethoxy)-pyrimidine], the melting point was 114 to 117 °C.

Consider `CCOc1nc(C)nc(N2CCN(c3ccc(F)cc3)CC2)c1[N+](=O)[O-]` [Example 10-2, 4-ethoxy-6-[4-(4-fluoro-phenyl)-piperazin-1-yl]-2-methyl-5-nitro-pyrimidine], for which the melting point was 116 to 119 °C. In addition, the IC50 on rat mGluR1a receptor was 0.18 µM.

Take `Cc1nc(OC(C)C)c([N+](=O)[O-])c(N2CCN(c3ccc(F)cc3)CC2)n1` [Example 11, 4-[4-(4-Fluoro-phenyl)-piperazin-1-yl]-6-isopropoxy-2-methyl-5-nitro-pyrimidine]: the melting point fell in the range of 98 to 100 °C.

`Cc1nc(OCC(F)(F)F)c([N+](=O)[O-])c(N2CCN(c3ccc(F)cc3)CC2)n1` [Example 12-2, 4-[4-(4-fluoro-phenyl)-piperazin-1-yl]-2-methyl-5-nitro-6-(2,2,2-trifluoro-ethoxy)-pyrimidine]: the melting point lay in the range of 92 to 95 °C.

On to `Cc1nc(OCC(F)(F)F)c([N+](=O)[O-])c(N2CCC(c3ccc(F)cc3)CC2)n1` [Example 13-2, 4-[4-(4-fluoro-phenyl)-piperidin-1-yl]-2-methyl-5-nitro-6-(2,2,2-trifluoro-ethoxy)-pyrimidine], for which the melting point was in the range of 61 to 64 °C.

Regarding `COCCOc1nc(C)nc(N2CCC(c3ccc(F)cc3)CC2)c1[N+](=O)[O-]` [Example 14-2, 4-[4-(4-fluoro-phenyl)-piperidin-1-yl]-6-(2-methoxy-ethoxy)-2-methyl-5-nitro-pyrimidine], the melting point lay in the range of 45 to 48 °C.

Consider `Cc1nc(N2CCC(c3ccc(F)cc3)CC2)c([N+](=O)[O-])c(=O)n1CC#N` [Example 16, {4-[4-(4-Fluoro-phenyl)-piperidin-1-yl]-2-methyl-5-nitro-6-oxo-6H-pyrimidin-1-yl}-acetonitrile], for which the melting point was 213 to 215 °C (dec.).

Consider `Cc1nc(N2CCC(c3ccc(F)cc3)CC2)c([N+](=O)[O-])c(=O)n1CCCCO` [Example 18, 6-[4-(4-Fluoro-phenyl)-piperidin-1-yl]-3-(4-hydroxy-butyl)-2-methyl-5-nitro-3H-pyrimidin-4-one], for which the melting point was in the range of 154 to 156 °C. The compound also displayed an IC50 at rat mGluR1a receptor of 0.28 µM.

`N#Cc1c(OCC(F)(F)F)nc(NCCO)nc1N1CCC(c2ccccc2)CC1` [Example 60, 2-(2-Hydroxy-ethylamino)-4-(4-phenyl-piperidin-1-yl)-6-(2,2,2-trifluoro-ethoxy)-pyrimidine-5-carbonitrile]: the IC50 on rat mGluR1a receptor was determined as 0.036 µM.

On rat mGluR1a receptor, `N#Cc1c(Cl)nc(NCC2CC2)nc1N1CCN(c2ccccc2)CC1` [Example 63, 4-chloro-2-(cyclopropylmethyl-amino)-6-(4-phenyl-piperazin-1-yl)-pyrimidine-5-carbonitrile] showed an IC50 of 0.025 µM.

On rat mGluR1a receptor, `N#Cc1c(Cl)nc(NCCO)nc1N1CCC(c2ccc(F)cc2)CC1` [Example 68, 4-chloro-6-[4-(4-fluoro-phenyl)-piperidin-1-yl]-2-(2-hydroxy-ethylamino)-pyrimidine-5-carbonitrile] showed an IC50 of 0.14 µM.

In the case of `CSc1nc(N)nc(N2CCN(c3ccc(F)cc3)CC2)c1C#N` [Example 70, 2-amino-4-[4-(4-fluoro-phenyl)-piperazin-1-yl]-6-methylsulfanyl-pyrimidine-5-carbonitrile], the IC50 at rat mGluR1a receptor was 0.21 µM.

Regarding `CSc1nc(N)nc(N2CCC(c3ccc(F)cc3)CC2)c1C#N` [Example 73, 2-Amino-4-[4-(4-fluoro-phenyl)-piperidin-1-yl]-6-methylsulfanyl-pyrimidine-5-carbonitrile], the IC50 at rat mGluR1a receptor stood at 0.159 µM.

In the case of `CCc1nc(C#N)c(N2CCN(c3ccccc3)CC2)nc1C` [Example 75-1, 5′-ethyl-6′-methyl-4-phenyl-3,4,5,6-tetrahydro-2H-[1,2′]bipyrazinyl-3′-carbonitrile], the melting point fell in the range of 99 to 101 °C. At rat mGluR1a receptor, this compound had an IC50 of 0.017 µM.

As for `CCc1nc(N2CCN(c3ccccc3)CC2)c(C#N)nc1C` [Example 75-2, 6′-ethyl-5′-methyl-4-phenyl-3,4,5,6-tetrahydro-2H-[1,2′]bipyrazinyl-3′-carbonitrile], the IC50 on rat mGluR1a receptor was determined as 0.023 µM.

Regarding `CCc1c(C)nc(N2CCN(c3ccc(F)cc3)CC2)c(C#N)[n+]1[O-]` [Example 79-1, 5′-ethyl-4-(4-fluoro-phenyl)-6′-methyl-4′-oxy-3,4,5,6-tetrahydro-2H-[1,2′]bipyrazinyl-3′-carbonitrile], the IC50 at rat mGluR1a receptor came to 0.025 µM.

In turn, `CCc1nc(N2CCN(c3ccc(F)cc3)CC2)c(C#N)[n+]([O-])c1C` [Example 79-2, 6′-ethyl-4-(4-fluoro-phenyl)-5′-methyl-4′-oxy-3,4,5,6-tetrahydro-2H-[1,2′]bipyrazinyl-3′-carbonitrile] registered an IC50 on rat mGluR1a receptor of 0.21 µM.

In turn, `Cc1nc(N2CCN(c3ccc(F)cc3)CC2)c(C#N)nc1-c1ccccc1` [Example 80, 4-(4-Fluoro-phenyl)-6′-methyl-5′-phenyl-3,4,5,6-tetrahydro-2H-[1,2′]bipyrazinyl-3′-carbonitrile] showed a melting point of 117 to 120 °C.

`N#Cc1ncc(NCCO)nc1N1CCC(c2ccc(F)cc2)CC1` [Example 82, 3-[4-(4-Fluoro-phenyl)-piperidin-1-yl]-5-(2-hydroxy-ethylamino)-pyrazine-2-carbonitrile] displayed a melting point of 155 to 158 °C.

The compound `N#Cc1ncc(NCCO)nc1N1CCN(c2ccc(F)cc2)CC1` [Example 83, 4-(4-Fluoro-phenyl)-6′-(2-hydroxy-ethylamino)-3,4,5,6-tetrahydro-2H-[1,2′]bipyrazinyl-3′-carbonitrile] came in with a melting point of 149 to 151 °C. Also, at rat mGluR1a receptor, the IC50 was found to be 1 µM.

With `N#Cc1nnc(NCCO)nc1N1CC=C(c2ccccc2)CC1` [Example 84, 3-(2-Hydroxy-ethylamino)-5-(4-phenyl-3,6-dihydro-2H-pyridin-1-yl)-[1,2,4]triazine-6-carbonitrile], the concentration for half-maximal inhibition (IC50) at rat mGluR1a receptor worked out at 0.66 µM.
